Results published in ChEMBL document CHEMBL4330129 (Bioorg Med Chem, 2019).
Values after ≈ are worked out from the molar mass of the structure shown. Active and inactive are the calls of the source. No cut-off for these calls is given here.

What was measured:
[1] = Binding affinity to FLAG/His-tagged Keap1 (unknown origin)/biotinylated full-length FLAG/His/Tev/Avi-tagged Cul3 (unknown origin) expressed in baculovirus infected Sf9 insect cells measured after 1 hr by TR-FRET assay; design: species or system Homo sapiens
[2] = biological target: Kelch-like ECH-associated protein 1 (Homo sapiens) (UniProt Q14145); experiment: Binding affinity to wild-type human N-terminal His6-tagged Keap1 (35 to 178 residues) expressed in baculovirus infected Sf9 insect cells assessed as cysteine-compound adduct formation at 15-fold molar excess measured after 1 hr by RP-LC/MS/MS analysis
[3] = test system: Kelch-like ECH-associated protein 1 (Homo sapiens), Q14145 [C151S]; experiment: Binding affinity to human N-terminal His6-tagged Keap1 C151S mutant (35 to 182 residues) expressed in baculovirus infected Sf9 insect cells assessed as cysteine-compound adduct formation at 15-fold molar excess measured after 1 hr by RP-LC/MS/MS analysis
[4] = Kinetic solubility of the compound at pH 7.4 by CLND method; format: physicochemical; conditions: buffer, read-out: Kinetic_solubility
[5] = (§1) Activation of Keap1/Cul3/Nrf2 in human BEAS2B cells assessed as increase in NQO1 levels measured after 48 hrs; format: cell-based; conditions: BEAS-2B
BACH1/MafK = BACH1/MafK (Homo sapiens, UniProt O14867+O60675); experiment: Inhibition of Bach1-Mafk interaction (unknown origin) by luciferase reporter gene based enzyme fragment complementation assay; format: protein assay
Keap1/Nrf2 = Keap1/Nrf2 (Homo sapiens, UniProt Q14145+Q16236); experiment: Binding affinity to FLAG/His-tagged Keap1 (unknown origin)/biotinylated full-length FLAG/His/Tev/Avi-tagged NRF2 (unknown origin) expressed in baculovirus infected Sf9 insect cells measured after 1 hr by TR-FRET assay
Homo sapiens [6] = species: Homo sapiens; experiment: Activation of Keap1/Cul3/Nrf2 in NHBE cells assessed as induction of HO-1 gene expression at 10 uM after 24 hrs by RT-PCR analysis relative to SFN; format: cell-based
[7] = Lipophilicity, log D of the compound at pH 7.4 by chromatographic method; format: physicochemical; conditions: buffer
[8] = Solubility of the compound in FaSSIF at pH 6.5 using solid sample; format: physicochemical
[9] = Stability of the compound at 23 degC using crystalline solid sample measured >3 years by LC/MS analysis; format: physicochemical
[10] = Stability of the compound at 23 degC using crystalline solid sample measured >3 years by 1H-NMR analysis; format: physicochemical
[11] = Apparent permeability across apical to basolateral side in MDCK-MDR1; format: ADME, cell-based, Canis lupus familiaris; conditions: dog
[12] = Apparent permeability across basolateral to apical side in MDCK-MDR1; format: ADME, cell-based, Canis lupus familiaris; conditions: dog
Homo sapiens [13] = species: Homo sapiens; experiment: as §1; format: cell-based
Mus musculus [14] = experiment: (§2) Antioxidant activity in po dosed C57BL/6J mouse model of cigarette smoking-induced oxidative stress assessed as inhibition of neutrophil infiltration dosed 24 hrs prior to cigarette smoking followed by qd dosing with cigarette smoking for 3 days by Wright-Giemsa staining based hemocytometry; format: functional, organism-based
Mus musculus [15] = experiment: as §2, with “in” for “in po dosed”, “infiltration at 0.1 to 100 umol/kg, po” for “infiltration”; format: functional, organism-based
Mus musculus [16] = experiment: as §2, with “in” for “in po dosed”, “total cell” for “neutrophil”, “infiltration at 0.1 to 100 umol/kg, po” for “infiltration”; format: functional, organism-based
Mus musculus [17] = experiment: as §2, with “in” for “in po dosed”, “mononuclear cell” for “neutrophil”, “infiltration at 0.1 to 100 umol/kg, po” for “infiltration”; format: functional, organism-based
[18] = Drug metabolism in rat assessed as (2S)-2-amino-5-[[(1R)-2-(carboxymethylamino)-1-[3-[[2-(dimethylamino)-3,4-dioxo-cyclobuten-1-yl]-methyl-amino]propylcarbamothioylsulfanylmethyl]-2-oxo-ethyl]amino]-5-oxo-pentanoic acid formation at 2 mg/kg, po; format: ADME, organism-based; conditions: in vivo
[19] = Drug metabolism in rat assessed as (2R)-2-acetamido-3-[3-[[2-(dimethylamino)-3,4-dioxo-cyclobuten-1-yl]-methyl-amino]propylcarbamothioylsulfanyl]propanoic acid formation at 2 mg/kg, po; format: ADME, organism-based; conditions: in vivo

Sequence of Keap1/Nrf2 (Q16236 whole entry): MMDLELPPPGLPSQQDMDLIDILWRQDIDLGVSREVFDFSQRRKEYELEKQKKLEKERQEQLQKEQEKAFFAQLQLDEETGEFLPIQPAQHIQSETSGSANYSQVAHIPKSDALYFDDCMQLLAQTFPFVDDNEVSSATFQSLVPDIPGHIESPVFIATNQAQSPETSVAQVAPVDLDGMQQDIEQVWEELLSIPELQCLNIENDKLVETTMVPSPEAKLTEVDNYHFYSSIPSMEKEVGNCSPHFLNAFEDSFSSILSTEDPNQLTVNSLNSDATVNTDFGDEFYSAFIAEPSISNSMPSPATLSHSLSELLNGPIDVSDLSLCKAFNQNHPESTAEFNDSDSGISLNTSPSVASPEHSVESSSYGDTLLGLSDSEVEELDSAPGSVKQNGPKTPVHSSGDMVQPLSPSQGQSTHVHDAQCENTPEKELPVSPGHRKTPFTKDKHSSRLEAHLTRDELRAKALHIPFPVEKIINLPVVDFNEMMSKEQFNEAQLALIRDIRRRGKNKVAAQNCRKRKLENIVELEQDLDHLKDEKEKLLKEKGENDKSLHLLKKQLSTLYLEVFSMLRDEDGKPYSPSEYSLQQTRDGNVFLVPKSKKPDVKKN
Sequence of Keap1/Nrf2 (Q14145 whole entry): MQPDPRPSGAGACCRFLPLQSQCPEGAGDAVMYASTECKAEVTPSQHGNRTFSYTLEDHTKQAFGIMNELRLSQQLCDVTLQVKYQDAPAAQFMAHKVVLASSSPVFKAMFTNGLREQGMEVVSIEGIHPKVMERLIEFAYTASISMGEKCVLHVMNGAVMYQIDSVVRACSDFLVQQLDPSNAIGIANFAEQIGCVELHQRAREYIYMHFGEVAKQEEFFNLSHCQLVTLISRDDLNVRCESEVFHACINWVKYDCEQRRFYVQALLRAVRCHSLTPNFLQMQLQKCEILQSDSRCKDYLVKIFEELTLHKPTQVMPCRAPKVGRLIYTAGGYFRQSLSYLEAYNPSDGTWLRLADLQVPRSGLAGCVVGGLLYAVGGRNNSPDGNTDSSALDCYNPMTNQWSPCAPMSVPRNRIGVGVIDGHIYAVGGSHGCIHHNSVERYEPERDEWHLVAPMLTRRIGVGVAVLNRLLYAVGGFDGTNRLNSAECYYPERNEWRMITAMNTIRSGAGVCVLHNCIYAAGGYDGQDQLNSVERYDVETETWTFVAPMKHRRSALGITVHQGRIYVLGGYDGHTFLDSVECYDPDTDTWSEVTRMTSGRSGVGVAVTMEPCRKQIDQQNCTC
Sequence of Kelch-like ECH-associated protein 1 (Homo sapiens), Q14145 [C151S] (Q14145 whole entry C151S, the tested form may be a part): as the sequence (Q14145 whole entry) above, with C151S counted along it
Sequence of BACH1/MafK (O60675 whole entry, the tested form may be a part): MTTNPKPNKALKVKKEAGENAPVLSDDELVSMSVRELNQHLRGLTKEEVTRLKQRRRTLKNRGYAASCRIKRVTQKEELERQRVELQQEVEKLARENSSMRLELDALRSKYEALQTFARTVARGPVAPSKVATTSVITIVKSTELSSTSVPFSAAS
Sequence of BACH1/MafK (O14867 whole entry, the tested form may be a part): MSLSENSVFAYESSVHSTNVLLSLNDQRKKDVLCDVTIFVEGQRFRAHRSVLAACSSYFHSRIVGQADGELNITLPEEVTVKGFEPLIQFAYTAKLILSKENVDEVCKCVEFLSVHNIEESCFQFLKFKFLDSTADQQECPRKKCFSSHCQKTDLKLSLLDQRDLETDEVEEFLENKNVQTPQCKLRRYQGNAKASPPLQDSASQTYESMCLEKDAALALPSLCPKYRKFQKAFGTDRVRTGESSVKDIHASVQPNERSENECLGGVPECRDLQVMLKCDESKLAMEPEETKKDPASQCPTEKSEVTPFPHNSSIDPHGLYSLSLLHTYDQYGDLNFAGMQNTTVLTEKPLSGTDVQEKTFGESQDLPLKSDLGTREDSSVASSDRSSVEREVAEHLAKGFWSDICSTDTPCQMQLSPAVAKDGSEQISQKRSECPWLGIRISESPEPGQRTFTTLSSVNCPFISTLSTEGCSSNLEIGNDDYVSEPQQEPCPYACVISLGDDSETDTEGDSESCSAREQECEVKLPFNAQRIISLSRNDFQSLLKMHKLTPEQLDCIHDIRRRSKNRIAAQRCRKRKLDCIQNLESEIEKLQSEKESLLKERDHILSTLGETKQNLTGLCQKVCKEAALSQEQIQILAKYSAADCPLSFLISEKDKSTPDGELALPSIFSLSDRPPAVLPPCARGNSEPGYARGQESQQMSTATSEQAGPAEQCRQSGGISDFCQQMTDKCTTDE
Sequence of Kelch-like ECH-associated protein 1 (Homo sapiens) (Q14145 whole entry, the tested form may be a part): as the sequence (Q14145 whole entry) above

| Structure (SMILES) | pIC50 [1] | Activity [2] | Activity [3] | solubility kinetic [4] | EC50 [5] | IC50 (BACH1/MafK) | IC50 (Keap1/Nrf2) | fold change (FC) (Homo sapiens [6]) | chromatographic logD [7] | further results |
| --- | --- | --- | --- | --- | --- | --- | --- | --- | --- | --- |
| C[S+]([O-])CCCCN=C=S (racemic) [SULFORAPHANE] | < 4 | Active | Active | 271 µM (≈ 48 µg/mL) | 1580 to 2090 nM | 15.8 µM | – | – | – | – |
| CN(C)c1c(N(C)CCCNC(=S)SC[C@H](NC(=O)CC[C@H](N)C(=O)O)C(=O)NCC(=O)O)c(=O)c1=O | – | – | – | – | 1580 nM | – | – | – | – | – |
| C[S+]([O-])CCCCNC(=S)SC[C@H](NC(=O)CC[C@H](N)C(=O)O)C(=O)NCC(=O)O (stereo partly specified) | < 4 | – | – | ≥ 290 µM | 1580 nM | – | > 100 µM | 5.8 | -0.75 | – |
| CN(C)c1c(N(C)CCCN=C=S)c(=O)c1=O | 4.3 | Active | Active | ≥ 394 µM | 1580 to 1660 nM | 3.16 µM | > 100 µM | 24.9 to 25 | 2.14 to 2.39 | solubility thermodynamic [8]: 8000 µg/mL (≈ 31.6 mM); Stability [9]: Stable; Stability [10]: Stable; Papp A→B [11]: 12.5 ×10⁻⁶ cm/s; Papp B→A [12]: 7.67 ×10⁻⁶ cm/s; Activity (Homo sapiens [13]): Dose-dependent effect; inhibition (Mus musculus [14]): Dose-dependent effect; inhibition (Mus musculus [15]): Active; inhibition (Mus musculus [16]): Active; inhibition (Mus musculus [17]): Active; Drug metabolism [18]: Metabolite_Detected; Drug metabolism [19]: Metabolite_Detected |
| CC(=O)N[C@@H](CSC(=S)NCCCC[S+](C)[O-])C(=O)O (stereo partly specified) | < 4 | – | – | ≥ 357 µM | 1580 nM | – | > 100 µM | 5.8 | -0.67 | – |
| CC(=O)N[C@@H](CSC(=S)NCCCN(C)c1c(N(C)C)c(=O)c1=O)C(=O)O | – | – | – | – | 1580 nM | – | – | – | – | – |
